Like-named read-outs stand apart in the source and are kept apart here.
Tests used:
[1] = test system: IL‐1 gene signature (CXCL1, CXCL2, CXCL3, CXCL5, CXCL6, CCL2, IL6, TNFAIP6); experiment: IL‐1 gene signature in sigmoid colon tissue by qPCR; type: in vivo, human; details: mean [± SD], selnoflast arm, median log2FC of 8 genes
Description: A predefined IL‐1 gene signature comprising eight genes (i.e., CXCL1, CXCL2, CXCL3, CXCL5, CXCL6, CCL2, IL6, TNFAIP6) relevant in the context of IBD was assessed in RNA extracted from the sigmoid colon tissue. The signature had been determined by combining gene expression data that met the following criteria: (1) overlapping expression profiles (upregulation by IL‐1β stimulation) in multiple cell types,[25] (2) differential expression in relevant cell types across published and proprietary single‐cell RNA‐sequencing (scRNA‐seq) datasets involving IBD patients and controls[26] and (3) co‐expression with the IL1R1 receptor and differential colonic gene expression between UC patients and healthy individuals. The 8‐gene panel was then assessed by quantitative PCR (qPCR) before and after treatment (baseline and Day 7), normalized to a set of housekeeping genes (B2M, GusB, HPRT1, MRLP19) and log2 fold changes (log2FC) from baseline were reported per gene as well as across the eight genes (median log2FC = gene signature).

[2] = Selnoflast plasma pharmacokinetics in UC patients (LC‐MS/MS, non‐compartmental); type: in vivo, human; details: for Tmax / concentration at 24 h / Cmax / half-life / AUC: 450 mg; for concentration at 24 h: read-out: Ctrough
Description: Selnoflast (450 mg QD or matching placebo) was administered orally in the morning following an overnight fast of at least 8 h during the patients’ 7‐day clinic stay. Water intake was restricted for 1 h pre‐dose and 1 h post‐dose, and no food was allowed until at least 4 h post‐dose.
The concentrations of selnoflast were determined in a total of 260 human plasma samples (obtained during the study) using a validated liquid chromatography‐tandem mass spectrometry (LC‐MS/MS) method. Sample analysis was performed after the addition of the internal standard by protein precipitation followed by LC‐MS/MS. The calibration range was between 40.0 ng/mL and 40000.0 ng/mL; the lower limit of quantification in human plasma was 40.0 ng/mL. Study samples were analyzed within the validated frozen storage stability timeframe of 371 days at −20°C and −70°C, the five validated freeze/thaw cycles, and proven room temperature storage stability of 24 h, in a total of six analytical runs. Five out of six runs met the acceptance criteria. The precision and accuracy (expressed as %RE) of the assay, as determined from the analysis of quality control samples, was satisfactory throughout the study.
All randomized patients were included in the intent‑to‑treat population. All patients completed all doses of study treatment and all were included in the safety, PK and PD analyses. Safety data were grouped according to treatment received and were tabulated and/or listed, as appropriate. PK parameters (including Tmax, Cmax, Ctrough, total exposure, drug accumulation, clearance, volume of distribution and T1/2) were extrapolated directly from the plasma concentration‐versus‐time profiles or calculated using standard non‐compartmental methods. PK and PD parameters were summarized and presented descriptively.

NLRP3 inflammasome = test system: NLRP3 inflammasome; design: method as in RO7486967 Investigator Brochure; details: ref RO7486967 Investigator Brochure; cited from earlier work
[3] = cited from earlier work; for Tolerability: healthy subjects, single doses 20-600 mg and multiple doses up to 450 mg QD for 7 days, ref unpublished results, study IZD334-001
Caspase‐1 = Caspase‐1 (pro and active form) WES‐assay in sigmoid colon tissue; type: in vivo, human; details: after 7 days’ treatment
Description: Tissue biopsies from the sigmoid colon were obtained before start of treatment (up to Day −3) and at the end of treatment (Day 7). For operational reasons, biopsies were taken 2−4.5 h post‐dose on Day 7. Stool samples were obtained at screening, before start of treatment, throughout the study, and at the 14‐day follow‐up visit. Levels of calprotectin were determined in stool samples. Sigmoid colon tissue was processed for RNA and DNA extraction as well as for single‐cell analysis, subsequent transcriptomic analysis, and identification of PD biomarkers. Sigmoid colon tissue samples were also processed for histology (hematoxylin and eosin staining, immunohistochemistry, fluorescence in situ hybridization) in order to characterize the cell types present (i.e., neutrophils and inflammatory monocytes). Histological analysis was performed on sigmoid colon tissue samples (from baseline and Day 7) using the disease‐specific histological indices Geboes score[23] and Nancy index.[24] Caspase‐1 (pro and active form) was assessed using a validated WES‐assay (manuscript in preparation).

[4] = test system: Breast Cancer Resistance Protein (BCRP); design: method as in Investigator Brochure; details: in vitro studies; ref Investigator Brochure; cited from earlier work
[5] = test system: cells isolated from the sigmoid colon; experiment: Single‐cell RNA sequencing of sigmoid colon tissue; type: in vivo, human; details: pseudobulk method, baseline and Day 7
Description: Single cell suspensions were obtained from cryopreserved sigmoid colon tissue samples through mechanical and enzymatic dissociation, and loaded onto a 10X chromium controller for cell partitioning. Single‐cell RNA‐sequencing libraries were prepared using 10X genomics NextGEM single‐cell 3′ version 3.1 reagents and sequenced on an Illumina NovaSeq 6000 sequencer. Quality control, data filtering, and data analysis was performed with the BESCA software (version 2.5.1)[27] and the RiBIOS software suite, as well as using custom scripts in both R (version 4.2.0) and Python (version 3.8).

[6] = design: method as in Investigator Brochure; details: ref Investigator Brochure, cited from earlier work
[7] = 450 mg QD repeat dosing, UC patients
[8] = human, plasma, po, 450 mg QD oral, fasted, UC patients N = 13, Day 1, geometric mean (CV% geo mean)
[9] = human, plasma, po, 450 mg QD oral, fasted, UC patients N = 13, steady‐state (Day 5), geometric mean (CV% geo mean)

In the case of `CCN1CCC(S(=O)(=O)NC(=O)Nc2c3c(cc4c2CCC4)CCC3)CC1` [Selnoflast, selnoflast], the “IL‐1 gene signature, log2FC from baseline to Day 7” value [1] is reported as −1.14 [± 1.8] log2FC, the Ctrough ([2]; 450 mg QD oral, fasted, UC patients N = 13, Day 1 (Clast, 24 h), geometric mean (CV% geo mean)) is reported as 2.55 (38.8) μg/mL and the CL/F ([2]; 450 mg QD oral, fasted, UC patients N = 13, Day 1, geometric mean (CV% geo mean)) is reported as 1.82 (17.5) L/h. The Ctrough ([2]; 450 mg QD oral, fasted, UC patients N = 13, steady‐state (Day 5) (Clast, 24 h), geometric mean (CV% geo mean)) was 2.66 (46.6) μg/mL, the CL/F ([2]; 450 mg QD oral, fasted, UC patients N = 13, steady‐state (Day 5), geometric mean (CV% geo mean)) was 1.68 (21.0) L/h and the “Accumulation: increase in AUCtau from Day 1 to Day 5” value [2, 7] was 8.6%. For the same compound, the “Accumulation: increase in Clast from Day 1 to Day 5” value [2, 7] was 4.3%, the “Accumulation: increase in Cmax from Day 1 to Day 5” value [2, 7] was 17% and the “Steady‐state achieved” value ([2]; 450 mg QD, UC patients) was “Day 2”. The Tmax ([2]; human, plasma, oral, UC patients in the present study, read-out: Median Tmax) was 1 to 2 h, the concentration at 24 h ([2]; human, plasma, po, 450 mg QD oral, fasted, UC patients N = 13, Day 1 (Clast, 24 h), geometric mean (CV% geo mean)) was 2550 ng/mL and the Cmax [2, 8] was 25000 ng/mL. It also gave a half-life [2, 8] of 6.9 h, an AUC ([2]; human, plasma, po, 450 mg QD oral, fasted, UC patients N = 13, Day 1, geometric mean (CV% geo mean), read-out: AUC0‐inf) of 275 µg·h/mL and an AUC ([2]; human, plasma, po, 450 mg QD oral, fasted, UC patients N = 13, Day 1, geometric mean (CV% geo mean), read-out: AUCtau) of 247 µg·h/mL. The Tmax ([2]; human, plasma, po, 450 mg QD oral, fasted, UC patients N = 13, Day 1, median (range), read-out: Tmax) was 1.97 h, the concentration at 24 h ([2]; human, plasma, po, 450 mg QD oral, fasted, UC patients N = 13, steady‐state (Day 5) (Clast, 24 h), geometric mean (CV% geo mean)) was 2660 ng/mL and the Cmax [2, 9] was 29300 ng/mL. The half-life [2, 9] was 6.93 h, the AUC ([2]; human, plasma, po, 450 mg QD oral, fasted, UC patients N = 13, steady‐state (Day 5), geometric mean (CV% geo mean), read-out: AUCtau) was 268 µg·h/mL and the Tmax ([2]; human, plasma, po, 450 mg QD oral, fasted, UC patients N = 13, steady‐state (Day 5), median (range), read-out: Tmax) was 1 h. The Vd/F ([2]; human, plasma, 450 mg QD oral, fasted, UC patients N = 13, Day 1, geometric mean (CV% geo mean), read-out: Vz/F) was 18.1 L, the “Effect on IL-1β release and cell death in vitro” value (NLRP3 inflammasome) was “inhibit IL-1β release and cell death in vitro” and the “Bacterial, viral, fungal, and other opportunistic infections” value ([3]; HVs in the Phase I clinical study, ref Investigator Brochure) was “No evidence”. For the same compound, the “Healthy volunteers with mild transaminase increase” value ([3]; MAD part, volunteers who received RO7486967, no clear dose dependency, not clinically significant, ref Study IZD334-001) was 4 out of 18, the Tolerability [3] was “well tolerated” and the Tolerability ([3]; listed as RO7486967) was “safe and well tolerated”. For the same compound, the “Caspase‐1 (pro‐ and active forms) change” value (Caspase‐1) was “did not show marked changes”, the BCRP substrate status [4] was “potential substrate” and the “Cellular composition and gene expression, difference between treatment arms” value [5] was “No significant differences”. For the same compound, the “Potential to cause direct hepatotoxicity” value ([6]; at therapeutically relevant concentrations, based on in vitro assessments) was “low” and the Mitochondrial toxicity ([6]; in vitro) was “did not show mitochondrial toxicity”.
